Read-outs that look alike come from different tables or passages of the source.
How the values were obtained:
DoHH2 = experiment: CellTiter-Glo proliferation/viability assay; format: cell-based, human; conditions: Homo sapiens, DOHH-2
Ramos = experiment: CellTiter-Glo proliferation/viability assay; format: cell-based, human; conditions: read-out: Ramos EC50
Lyn [1] = molecular target: T1, Lyn (Homo sapiens (Human), UniProt P07948); conditions: read-out: Lyn IC50
Src [2] = molecular target: T2, Src (Homo sapiens (Human), UniProt P12931); experiment: biochemical
T2 sequence (P12931 whole entry, looked up): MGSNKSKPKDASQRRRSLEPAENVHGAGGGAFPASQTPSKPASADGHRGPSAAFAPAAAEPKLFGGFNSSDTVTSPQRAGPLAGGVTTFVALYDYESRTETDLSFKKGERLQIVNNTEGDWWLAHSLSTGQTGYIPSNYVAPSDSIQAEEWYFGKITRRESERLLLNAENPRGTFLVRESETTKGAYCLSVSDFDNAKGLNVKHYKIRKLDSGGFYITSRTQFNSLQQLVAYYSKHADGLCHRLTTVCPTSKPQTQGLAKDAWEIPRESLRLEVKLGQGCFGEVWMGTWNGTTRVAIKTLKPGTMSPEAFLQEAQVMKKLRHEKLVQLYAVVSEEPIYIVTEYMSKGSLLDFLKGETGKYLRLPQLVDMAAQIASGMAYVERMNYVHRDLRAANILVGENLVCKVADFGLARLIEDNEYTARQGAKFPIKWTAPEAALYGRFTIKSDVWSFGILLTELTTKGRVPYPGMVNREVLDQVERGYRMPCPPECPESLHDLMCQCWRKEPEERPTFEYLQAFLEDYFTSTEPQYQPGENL

Lyn [3] = molecular target: T1, Lyn; experiment: biochemical
BTK = BTK (Homo sapiens (Human), UniProt Q06187)
Chain of BTK (Q06187 whole entry): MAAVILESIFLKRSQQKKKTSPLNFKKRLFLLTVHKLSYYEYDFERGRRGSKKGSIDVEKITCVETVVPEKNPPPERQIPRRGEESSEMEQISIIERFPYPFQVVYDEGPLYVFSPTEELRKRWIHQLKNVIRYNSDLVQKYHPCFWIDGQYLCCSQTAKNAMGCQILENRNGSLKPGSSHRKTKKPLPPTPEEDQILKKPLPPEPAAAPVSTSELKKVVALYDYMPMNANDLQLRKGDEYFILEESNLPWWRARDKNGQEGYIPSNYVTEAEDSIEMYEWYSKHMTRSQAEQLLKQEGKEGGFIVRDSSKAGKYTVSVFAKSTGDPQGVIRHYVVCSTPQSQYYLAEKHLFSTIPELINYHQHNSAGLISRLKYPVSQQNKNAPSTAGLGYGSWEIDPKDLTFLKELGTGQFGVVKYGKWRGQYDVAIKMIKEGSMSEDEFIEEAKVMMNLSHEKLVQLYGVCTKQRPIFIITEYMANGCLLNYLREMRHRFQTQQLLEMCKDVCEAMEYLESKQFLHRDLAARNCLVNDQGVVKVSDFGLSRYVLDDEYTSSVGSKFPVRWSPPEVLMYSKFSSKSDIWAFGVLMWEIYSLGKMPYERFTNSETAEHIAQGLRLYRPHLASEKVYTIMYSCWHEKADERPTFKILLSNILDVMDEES

Src [4] = molecular target: T2, Src; conditions: read-out: Src IC50
DoHH2 cells = conditions: treated 24 hours
[5] = system: PLCγ2 phosphorylation in Ramos cells; experiment: PLCγ2 phosphorylation by flow cytometry; format: cell-based, human; conditions: Homo sapiens, flow cytometry, anti-phospho PLCγ2 (Tyr1217), four concentrations, read-out: Inhibition of phosphorylation of PLC-γ2 EC50
Procedure: Ramos cells were cultured in RPMI 1640 media with 10% FBS and were starved overnight (18 h) in 1% FBS containing media and on the next day pretreated with inhibitor for 2 h before stimulation. Cells were stimulated to induce BTK network dependent signal transduction pathways using mouse anti-human IgM (final concentration 10 ug/ml; Invitrogen) antibodies and 3.3 mM H2O2 mixture for 2 minutes followed by F(Ab) fragment that cross-linked the anti-IgM antibody (final concentration 10 ug/ml), and 3.3 mM H2O2 for 8 minutes. Cell lysates were prepared in lysis buffer containing protease and phosphatase inhibitors, quantified using the BCA protein assay kit (Pierce) and used for Western blotting. Antibodies specifically targeted to the molecules of interest, PLCγ2 phosphorylated at Tyr1217 and total PLCγ2, (Cell Signaling Technology) were used in a standard Western blotting procedure.
PLCγ2 phosphorylation was also assessed by flow cytometry. Cells were similarly stimulated and following stimulation, Cytofix buffer (Becton Dickinson) was added, cells were centrifuged and the cell pellets incubated on ice with Phosflow perm buffer III (Becton Dickinson). These cell pellets were washed with Perm/Wash buffer (Becton Dickinson); resuspended and labeled for flow cytometry analysis in a staining mixture containing Perm/Wash buffer and PE-labeled anti-phosphoPCLγa2 (Tyr1217) antibody (Becton Dickinson). The samples were washed with Perm/Wash buffer and analyzed on a FACS Calibur flow cytometer using CellQuest Pro software. As mentioned for the Western blot experiments, phosphorylation of PLCγ2 at Tyr1217 along with Tyr753, Tyr759 and Tyr1197 is correlated with increased PLCγ2 activity. The readout for BTK network signaling was inhibition of phosphorylation of PLCγ2. Cells were gated to exclude dead or dying cells. Fluorescence signals from the antibody staining were plotted in logarithmic units and data was analyzed using Cellquest Pro software. […] An ED50 was calculated based on the geometric mean of fluorescence intensity observed for treatment for four different concentrations of the inhibitors (see Table 7 and FIG. 6). […] Thus treatment with amino naphthyridinones inhibits PLCγ2 phosphorylation consistent with inhibition of BTK and/or LYN activity.
Following stimulation, cells were prepared for analysis by flow cytometry as described above. In short, cells were fixed and permeabilized using Cytofix buffer, Phosflow perm buffer and Perm/Wash buffer (Becton Dickinson). The cells were stained with PE-labeled anti-phosphoPCLγ2 (Tyr759) antibody (Becton Dickinson) and analyzed on a FACS Calibur flow cytometer using CellQuest Pro software. […] Thus aminonaphthyridinones are useful for the indirect inhibition of PLCγ2 phosphorylation.

[6] = Table 4, DoHH2 cells, read-out: EC50 (Proliferation)

T1 sequence (P07948 whole entry): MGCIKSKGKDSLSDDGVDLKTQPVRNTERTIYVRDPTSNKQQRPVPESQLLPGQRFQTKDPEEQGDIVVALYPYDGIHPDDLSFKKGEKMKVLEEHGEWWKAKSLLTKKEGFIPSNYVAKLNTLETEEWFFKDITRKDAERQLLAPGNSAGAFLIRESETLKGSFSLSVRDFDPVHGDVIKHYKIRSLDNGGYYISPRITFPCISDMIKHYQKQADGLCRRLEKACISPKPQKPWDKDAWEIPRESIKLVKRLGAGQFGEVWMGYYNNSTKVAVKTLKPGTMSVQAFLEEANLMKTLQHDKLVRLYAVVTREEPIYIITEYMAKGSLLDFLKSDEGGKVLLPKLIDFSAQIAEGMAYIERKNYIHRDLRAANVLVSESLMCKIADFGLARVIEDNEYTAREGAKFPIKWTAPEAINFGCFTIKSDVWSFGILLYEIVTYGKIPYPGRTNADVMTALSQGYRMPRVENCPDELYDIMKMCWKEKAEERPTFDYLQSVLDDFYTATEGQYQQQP

Compound	EC50 (Ramos; Homo sapiens, Ramos, 48 h) [µM]	IC50 (Lyn [1]) [µM]	IC50 (Src [2]) [µM]	IC50 (Lyn [3]) [µM]	IC50 (BTK) [µM]	IC50 (BTK; read-out: BTK IC50) [µM]	IC50 (Src [4]) [µM]	EC50 (Ramos; Homo sapiens, Ramos, 48 hrs) [µM]	EC50 [5] [µM]	EC50 (Ramos; 48 hrs) [µM]	IC50 (Lyn [3]; Lyn IC50) [µM]	EC50 (DoHH2; 48 hrs, read-out: DoHH2 EC50) [µM]	EC50 (DoHH2; [6]) [µM]	Effect on Cell Cycle (DoHH2 cells)
CCn1c(=O)c(I)cc2cnc(Nc3ccc(C)cn3)cc21 [Compound 89]		> 5				> 5	> 5	< 1				< 1	< 1	G1 Arrest
CN1CCC(n2c(=O)c(-c3c(F)cccc3F)cc3cnc(Nc4ccc(F)cn4)cc32)CC1 [Compound 79, 3-(2,6-difluorophenyl)-7-((5-fluoropyridin-2-yl)amino)-1-(1-methylpiperidin-4-yl)-1,6-naphthyridin-2(1H)-one]		< 0.1					2.58	1 to 10				< 1	< 1	G1 Arrest
CCN(CC)CCOc1ccc(Nc2cc3c(cn2)cc(C(C)C)c(=O)n3-c2ccccc2)nc1 [Compound 18, 7-[5-(2-Diethylamino-ethoxy)-pyridin-2-ylamino]-3-isopropyl-1-phenyl-1H-[1,6]naphthyridin-2-one]	> 10	0.1 to 1	0.1 to 1	0.1 to 1								< 1	< 1	
CCN(CC)CCOc1ccc(Nc2cc3c(cn2)cc(-c2c(F)cccc2F)c(=O)n3C2CCOC2)nc1 (single isomer, unassigned) [Compound 143, (S or R)-7-((5-(2-(diethylamino)ethoxy)pyridin-2-yl)amino)-3-(2,6-difluorophenyl)-1-(tetrahydrofuran-3-yl)-1,6-naphthyridin-2(1H)-one]			< 0.1		< 0.1					> 10	< 0.1	< 1		
CCn1c(=O)c(-c2ccccc2)cc2cnc(Nc3cn(C)cn3)cc21 [Compound 113, 1-ethyl-7-((1-methyl-1H-imidazol-4-yl)amino)-3-phenyl-1,6-naphthyridin-2(1H)-one]	> 10		0.1 to 1	0.1 to 1	1 to 5							> 10		
CCn1c(=O)c(-c2ccccc2)cc2cnc(Nc3ccc(CN4CCN(S(C)(=O)=O)CC4)cn3)cc21 [Compound 111, 1-ethyl-7-((5-((4-(methylsulfonyl)piperazin-1-yl)methyl)pyridin-2-yl)amino)-3-phenyl-1,6-naphthyridin-2(1H)-one]			0.1 to 1	0.1 to 1		< 0.1		1 to 10				< 1		
CCN(CC)CCOc1ccc(Nc2cc3[nH]c(=O)c(-c4ccccc4)cc3cn2)nc1 [Compound 14, 7-[5-(2-Diethylamino-ethoxy)-pyridin-2-ylamino]-3-phenyl-1H-[1,6]naphthyridin-2-one]			0.1 to 1	0.1 to 1		< 0.1		> 10				1 to 10		
NCCn1c(=O)c(-c2c(F)cccc2F)cc2cnc(Nc3ccc(F)cn3)cc21 [Compound 127, 1-(2-aminoethyl)-3-(2,6-difluorophenyl)-7-((5-fluoropyridin-2-yl)amino)-1,6-naphthyridin-2(1H)-one]			0.1 to 1	0.1 to 1		< 0.1		> 10				1 to 10		
CCN(CC)CCOc1ccc(Nc2cc3c(cn2)cc(C(C)C)c(=O)n3C2CCC2)nc1 [Compound 47, 1-Cyclobutyl-7-[5-(2-diethylamino-ethoxy)-pyridin-2-ylamino]-3-isopropyl-1H-[1,6]naphthyridin-2-one]														G1 Arrest

Continued, in another order:

EC50 (Ramos; Homo sapiens, Ramos, 48 h) [µM]	IC50 (Lyn [1]) [µM]	IC50 (Src [2]) [µM]	IC50 (Lyn [3]) [µM]	IC50 (BTK) [µM]	IC50 (BTK; read-out: BTK IC50) [µM]	IC50 (Src [4]) [µM]	EC50 (Ramos; Homo sapiens, Ramos, 48 hrs) [µM]	EC50 [5] [µM]	EC50 (Ramos; 48 hrs) [µM]	IC50 (Lyn [3]; Lyn IC50) [µM]	Compound	EC50 (DoHH2; 48 hrs, read-out: DoHH2 EC50) [µM]	EC50 (DoHH2; [6]) [µM]	Effect on Cell Cycle (DoHH2 cells)
> 10	0.1 to 1	0.1 to 1	0.1 to 1	0.1 to 1	0.1 to 1						CCn1c(=O)c(-c2ccccc2C)cc2cnc(Nc3ccc(C)cn3)cc21 [Compound 45, 1-ethyl-7-(5-methylpyr—idin-2-ylamino)-3-o-tolyl-1,6-naphthyridin-2(1H)-one]	> 10		
1 to 10	< 0.1			0.1 to 1		< 0.1					CCn1c(=O)c(-c2ccccc2)cc2cnc(Nc3ccc(NCCO)cn3)cc21 [Compound 66, 1-Ethyl-7-[5-(2-hydroxy-ethylamino)-pyridin-2-ylamino]-3-phenyl-1H-[1,6]naphthyridin-2-one]	< 1	< 1	G1 Arrest
	< 0.1					< 0.1	> 10				O=c1c(-c2c(F)cccc2F)cc2cnc(Nc3ccc(F)cn3)cc2n1C1CCCC1 [Compound 77, 1-cyclopentyl-3-(2,6-difluorophenyl)-7-((5-fluoropyridin-2-yl)amino)-1,6-naphthyridin-2(1H)-one]	< 1	< 1	G1 Arrest
1 to 10	< 0.1					< 0.1		0.45			O=c1c(-c2c(F)cccc2F)cc2cnc(Nc3ccc(F)cn3)cc2n1C1CCOC1 (stereo not shown) [Compound 83, 3-(2,6-difluorophenyl)-7-((5-fluoropyridin-2-yl)amino)-1-(tetrahydrofuran-3-yl)-1,6-naphthyridin-2(1H)-one]	< 1		
	> 5				> 5	> 5	1 to 10				CCn1c(=O)c(-c2ccccc2)cc2cnc(Nc3ccc(F)cn3)cc21 [Compound 28, 1-Ethyl-7-(5-fluoro-pyridin-2-ylamino)-3-phenyl-1H-[1,6]naphthyridin-2-one]	1 to 10	1 to 10	No Arrest
	> 5				> 5	< 0.1	> 10				CCn1c(=O)c(C(C)(C)O)cc2cnc(Nc3ccc(C)cn3)cc21 [Compound 69]	> 10	> 10	No Arrest
> 10		< 0.1	< 0.1	< 0.1							O=c1c(-c2c(Cl)cccc2Cl)cc2cnc(Nc3ccc(F)cn3)cc2n1C1CCOC1 (single isomer, unassigned) [Compound 147, (S or R)-3-(2,6-dichlorophenyl)-7-((5-fluoropyridin-2-yl)amino)-1-(tetrahydrofuran-3-yl)-1,6-naphthyridin-2(1H)-one]	< 1		
		0.1 to 1	0.1 to 1	1 to 5			> 10				CCn1c(=O)c(-c2ccccc2)cc2cnc(Nc3ccc(OC)cn3)cc21 [Compound 51, 1-Ethyl-7-(5-methoxy-pyridin-2-ylamino)-3-phenyl-1H-[1,6]naphthayridin-2-one]	1 to 10		
	> 5			0.1 to 1		> 5	1 to 10				CCc1cc2cnc(Nc3ccc(C)cn3)cc2n(CC)c1=O [Compound 19, 1,3-Diethyl-7-(5-methyl-pyridin-2-ylamino)-1H-[1,6]naphthyridin-2-one]	1 to 10	1 to 10	No Arrest
> 10		0.1 to 1	1 to 5	0.1 to 1							CCn1c(=O)c(-c2ccccc2)cc2cnc(Nc3ccccn3)cc21 [Compound 7, 1-Ethyl-3-phenyl-7-(pyridin-2-ylamino)-1H-[1,6]naphthyridin-2-one]	1 to 10		
	0.1 to 1		0.1 to 1	0.1 to 1	0.1 to 1	< 0.1	> 10				CCn1c(=O)c(-c2ccccc2)cc2cnc(Nc3ccc(O)cn3)cc21 [Compound 52, 1-Ethyl-7-(5-hydroxy-pyridin-2-ylamino)-3-phenyl-H-[1,6]naphthyridin-2-one]	1 to 10	1 to 10	G1 Arrest
